What all share (assay type): cell-based
Assay [1] has as its system bifidobacteria. The assay can be described thus: Experimental Example 1-1: addition of amino acid and fructo-oligosaccharide to human feces suspension, anaerobic culture, quantitative PCR of bifidobacteria. The note with it: amino acid added together with 0.5% FOS, compared with FOS alone, human feces suspension in PBS, 37° C., 4 days. How it is done:
The PBS solutions for the Examples and Comparative Examples shown in Table 1-1 were prepared and used as media for a feces culture. PBS alone was used as a control. Fructo-oligosaccharide (FOS) manufactured by Wako Pure Chemical Industries, Ltd. (#064-02385) was used.
(§1) Thereafter, 10 ml of each solution was dispensed into glass vials and the glass vials were sterilized by autoclave, made anaerobic, and sealed with a butyl rubber stopper. The feces suspension was prepared by collecting about 10 g of feces from 3 healthy individuals (one man and two women) in their 20 s to 40 s and suspending same in 80 ml of anaerobic PBS. The feces suspension was added to each vial by 0.5 ml, placed in an incubator at 37° C., and anaerobically cultured for 4 days with tumble blending once per day. After completion of the culture, an intestinal bacterial pellet was obtained from the entire amount of the culture medium by centrifugation (8,000×g, 5 min). DNA was extracted from this pellet using ISOFECAL for BeadsBeat (manufactured by NIPPON GENE CO., LTD.), and quantitative PCR was performed using GeneAce SYBR qPCR Mix α (manufactured by NIPPON GENE CO., LTD.). Quantitative PCR was performed under the conditions of 45 cycles of 95° C. for 30 sec and 60° C. for 60 sec after 95° C. for 10 min. Primers for quantitative PCR used for detection bifidobacteria are as follows.
(§2) Using the results obtained by quantitative PCR, the relative amount when the control is 1 was calculated, and the results were normalized with z-score.

The subject of assay [2] is bifidobacteria. Kind of assay: Experimental Example 2: addition test of amino acid and galacto-oligosaccharide to human feces suspension. The note with it: amino acid added together with 0.5% GOS, compared with GOS alone; human feces suspension in PBS, 4 days; quantitative PCR. The protocol:
as §1
The PBS solutions for the Examples and Comparative Examples shown in Table 2 were prepared and used as media for feces culture. […]
as §2

Assay [3] deals with bifidobacteria. Kind of assay: Experimental Example 1-2: addition test of amino acid and fructo-oligosaccharide to human feces suspension. To be noted: amino acid added together with 0.5% FOS, compared with FOS alone; human feces suspension in PBS, 4 days; quantitative PCR. How it is done:
as §1
The PBS solutions for the Examples and Comparative Examples shown in Table 1-2 were prepared and used as media for a feces culture. […]
as §2

For eight compounds, proliferation of bifidobacteria results are on record in patent US11426347B2, “Food for improving intraintestinal environment” (AJINOMOTO CO., INC., priority 2017, dated 2022).

The structures appear in SMILES notation.

As to `NCCCC[C@H](N)C(=O)O` [Lys, L-lysine], the proliferation of bifidobacteria entry with bifidobacteria [1] is given as “greater proliferation of bifidobacteria than that with FOS alone”; with bifidobacteria [2], “greater proliferation of bifidobacteria than that with GOS alone”. As to `O=C(O)[C@@H]1CCCN1` [Pro, L-proline], the proliferation of bifidobacteria result in the assay with bifidobacteria [3] is listed as “greater proliferation of bifidobacteria than that with FOS alone”. For the compound `CC(C)[C@H](N)C(=O)O` [Val, L-valine], the proliferation of bifidobacteria entry in the assay on bifidobacteria [1] was “greater proliferation of bifidobacteria than that with FOS alone”. Still for that read-out and setting: then `CC[C@H](C)[C@H](N)C(=O)O` [Ile, L-isoleucine], with “greater proliferation of bifidobacteria than that with FOS alone”. `N[C@@H](Cc1c[nH]cn1)C(=O)O` [His, L-histidine]: the proliferation of bifidobacteria entry in the assay with bifidobacteria [3] is “greater proliferation of bifidobacteria than that with FOS alone”. As for `C[C@H](N)C(=O)O` [Ala, L-alanine], the proliferation of bifidobacteria entry with bifidobacteria [1] is on record as “greater proliferation of bifidobacteria than that with FOS alone”.

With `NC(=O)CC[C@H](N)C(=O)O` [Gln, L-glutamine], in the assay with bifidobacteria [1], the proliferation of bifidobacteria result is “greater proliferation of bifidobacteria than that with FOS alone”. With `N[C@@H](CCC(=O)O)C(=O)O` [Glu, L-glutamic acid], the proliferation of bifidobacteria result in the assay with bifidobacteria [1] is given as “greater proliferation of bifidobacteria than that with FOS alone”; in the assay on bifidobacteria [2] it was “greater proliferation of bifidobacteria than that with GOS alone”.
